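These data come from cells grown in 96-well plates and exposed to compound for 48 hours at five concentrations. GI50 marks 50% less growth. TGI: concentration producing complete growth inhibition.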
Assays:
Assay in all cases: NCI tumour cell line growth inhibition, 48 h
[1] = test system: HL-60(TB) leukemia
[2] = test system: A549 NSCLC
[3] = test system: HT29 colon
[4] = test system: MDA-N
[5] = test system: KM12 colon
[6] = test system: HOP-92 NSCLC
[7] = test system: SNB-19 CNS
[8] = test system: HCT-116 colon
[9] = test system: RXF 393 renal
[10] = test system: SK-MEL-5 melanoma

Cc1ccc(/C=C2\CCCc3ccccc3C2=O)cc1
TGI [1]: 30.7 µM | TGI [2]: > 100 µM | TGI [3]: 18.5 µM | TGI [4]: 4.48 µM | TGI [5]: 18.2 µM | TGI [6]: 72.4 µM | TGI [7]: 89.2 µM | TGI [8]: 29.1 µM

O=Cc1ccc(OCc2cccc(COc3ccc(/C=N\Nc4ccc([N+](=O)[O-])cc4[N+](=O)[O-])cc3)n2)cc1
TGI [1]: > 100 µM | TGI [9]: > 100 µM | TGI [2]: > 100 µM | TGI [3]: > 100 µM | TGI [4]: > 100 µM | TGI [5]: > 100 µM | TGI [10]: > 100 µM | TGI [7]: > 100 µM | TGI [8]: > 100 µM

O=C1C(CN2CCCCC2)CCC1CN1CCCCC1 (centres undefined)
TGI [9]: 28.3 µM | TGI [2]: > 100 µM | TGI [3]: 40.4 µM | TGI [4]: 22.2 µM | TGI [5]: > 69.7 µM | TGI [10]: > 69.3 µM | TGI [6]: 54.6 µM | TGI [7]: > 100 µM | TGI [8]: 49.5 µM

O=C(NNC(=S)Nc1cccc(Cl)c1)c1cc(-c2ccccc2)nc2ccccc12
TGI [9]: 32.7 µM | TGI [2]: 32.3 µM | TGI [3]: 45.3 µM | TGI [4]: 36.5 µM | TGI [5]: 49 µM | TGI [10]: 33.2 µM | TGI [6]: 30.2 µM | TGI [7]: 33.9 µM | TGI [8]: 30.3 µM

CCOC(=O)/C=C(/C(=O)OCC)n1ccc(=O)n(Cc2cn(COCCOC(C)=O)nn2)c1=O
TGI [9]: 56.2 µM | TGI [2]: > 100 µM | TGI [3]: 31.9 µM | TGI [4]: > 100 µM | TGI [5]: 35.9 µM | TGI [10]: 75.4 µM | TGI [6]: 5.04 µM | TGI [7]: > 100 µM | TGI [8]: 80.8 µM

CC12C(=O)CC(CC1=O)C2(C)C
TGI [1]: > 100 µM | TGI [2]: > 100 µM | TGI [3]: > 100 µM | TGI [4]: > 100 µM | TGI [5]: > 100 µM | TGI [10]: > 100 µM | TGI [6]: > 100 µM | TGI [7]: > 100 µM | TGI [8]: > 100 µM

NC(N)=N/N=C/c1c[nH]c2ccccc12
TGI [1]: > 100 µM | TGI [9]: > 100 µM | TGI [2]: > 100 µM | TGI [3]: > 100 µM | TGI [5]: > 100 µM | TGI [10]: > 100 µM | TGI [7]: > 100 µM

COc1ccc(C2OC[C@H]3O[C@@H](OCc4ccccc4)[C@H](O)[C@@H](O)[C@@H]3O2)cc1 (some centres undefined)
TGI [9]: > 100 µM | TGI [2]: > 100 µM | TGI [3]: > 100 µM | TGI [4]: > 100 µM | TGI [10]: > 100 µM | TGI [6]: > 100 µM | TGI [7]: > 100 µM | TGI [8]: > 100 µM

O=P(Nc1ccc(Cl)cc1)(Oc1ccccc1)N(CCCl)CCCl (centres undefined)
TGI [2]: > 100 µM | TGI [3]: > 100 µM | TGI [5]: > 100 µM | TGI [10]: > 100 µM | TGI [6]: > 100 µM | TGI [8]: > 100 µM

CC(C)=CCC/C(C)=C/C=C/C(C)=C/C=C/C(C)=C/C=C/C=C(C)/C=C/C=C(C)/C=C/[C@H]1C(C(C)(C)O)CC[C@]1(C)O (some centres undefined)
TGI [1]: 48.9 µM | TGI [9]: 45.4 µM | TGI [3]: 86.2 µM | TGI [4]: 81.6 µM | TGI [5]: 70.6 µM | TGI [10]: 33.5 µM | TGI [6]: 28.3 µM | TGI [8]: 31.2 µM

NC(Cc1ccccc1)C(=O)N[C@H]1c2ccsc2/C(=N/O)[C@H]1O (some centres undefined)
TGI [1]: > 100 µM | TGI [9]: > 100 µM | TGI [2]: > 100 µM | TGI [3]: > 100 µM | TGI [4]: > 100 µM | TGI [10]: > 100 µM | TGI [6]: > 100 µM | TGI [8]: > 100 µM

COCN(CCC1=CCCCC1)C(=O)OC
TGI [9]: > 100 µM | TGI [2]: > 100 µM | TGI [3]: > 100 µM | TGI [4]: > 100 µM | TGI [5]: > 100 µM | TGI [10]: > 100 µM | TGI [6]: > 100 µM | TGI [7]: > 100 µM | TGI [8]: > 100 µM

O=C1C=C(C2=CC(=O)C(=O)c3ccccc32)c2ccccc2C1=O
TGI [1]: > 100 µM | TGI [9]: > 100 µM | TGI [2]: > 100 µM | TGI [3]: > 100 µM | TGI [5]: 39.8 µM | TGI [10]: 8.17 µM | TGI [6]: 39.3 µM | TGI [7]: 53.2 µM | TGI [8]: 50.1 µM

Cc1ccc(-c2c(C#N)c(-c3ccc(Cl)cc3)c(C#N)c(=O)n2NS(=O)(=O)c2ccc(C)cc2)cc1
TGI [9]: 65.7 µM | TGI [2]: 82.3 µM | TGI [3]: > 100 µM | TGI [4]: > 100 µM | TGI [5]: 80.6 µM | TGI [10]: 38.9 µM | TGI [6]: > 100 µM | TGI [7]: > 100 µM | TGI [8]: 50.6 µM

O=C(NI1OC(=O)c2ccccc21)c1ccc(Cl)cc1
TGI [1]: > 100 µM | TGI [9]: > 100 µM | TGI [2]: > 100 µM | TGI [3]: > 100 µM | TGI [5]: > 100 µM | TGI [10]: > 100 µM | TGI [6]: > 100 µM | TGI [8]: > 100 µM

O=C1C=CC[C@H]2O[C@@H](COC(=O)Cc3ccccc3)C[C@H]2O1
TGI [1]: 65.2 µM | TGI [2]: > 100 µM | TGI [3]: 71.7 µM | TGI [4]: > 100 µM | TGI [5]: 42.4 µM | TGI [10]: > 100 µM | TGI [6]: > 100 µM | TGI [7]: > 100 µM

CC1(C)NC2C(=O)c3c([nH]c4ccccc34)[C@]3(C)CCC1CC23 (some centres undefined)
TGI [1]: > 100 µM | TGI [9]: > 100 µM | TGI [2]: > 100 µM | TGI [3]: > 100 µM | TGI [4]: > 100 µM | TGI [5]: > 100 µM | TGI [10]: > 100 µM | TGI [6]: > 100 µM | TGI [8]: > 100 µM

CSc1ncnc2c1ncn2C1CC(Oc2ccc(C)cc2)C(COc2ccc(C)cc2)O1 (centres undefined)
TGI [1]: > 100 µM | TGI [2]: > 100 µM | TGI [3]: > 100 µM | TGI [4]: > 100 µM | TGI [5]: > 100 µM | TGI [10]: > 100 µM | TGI [6]: > 100 µM | TGI [7]: > 100 µM | TGI [8]: > 100 µM

CNc1ccc(C(=O)CC(O)CCC(C)C2OC(=O)CC(O)CC(=O)CC(O)CC(O)CC(O)CC(O)CC3(O)CC(O)C(C(=O)OC)C(CC(O[C@@H]4O[C@H](C)[C@@H](O)[C@H](N)[C@@H]4O)/C=C/C=C/C=C/C=C/C=C/C=C/C=C/C2C)O3)cc1 (some centres undefined)
GI50 [1]: 2.9 µM | TGI [1]: 7.04 µM | GI50 [9]: 1.72 µM | TGI [9]: 4.46 µM | GI50 [3]: 3.63 µM | TGI [3]: 24.7 µM | GI50 [5]: 3.9 µM | TGI [5]: 12.4 µM | GI50 [10]: 1.42 µM | TGI [10]: 3.17 µM | GI50 [6]: 3.27 µM | TGI [6]: > 100 µM | GI50 [7]: 3.82 µM | TGI [7]: > 100 µM | GI50 [8]: 3.46 µM | TGI [8]: > 100 µM

NC(N)=NCCC[C@H](N)C(=O)NCC(=O)N[C@@H](CC(=O)O)c1ncc(NC(=O)C(F)(F)F)o1
TGI [1]: > 25 µM | TGI [9]: > 25 µM | TGI [2]: > 25 µM | TGI [3]: > 25 µM | TGI [5]: > 25 µM | TGI [10]: > 25 µM | TGI [8]: > 25 µM

CC(=O)OC(/C=C/c1ccccc1)=C(OC(C)C)/C1=C(\c2ccccc2)SCCCSC1=O
TGI [1]: > 100 µM | TGI [9]: > 100 µM | TGI [2]: > 100 µM | TGI [3]: > 100 µM | TGI [5]: > 100 µM | TGI [10]: > 100 µM | TGI [6]: > 100 µM | TGI [7]: > 100 µM | TGI [8]: > 100 µM

CN1CCC(O)(C(C)(C)C)CC1
TGI [1]: > 100 µM | TGI [9]: > 100 µM | TGI [2]: > 100 µM | TGI [3]: > 100 µM | TGI [4]: > 100 µM | TGI [5]: > 100 µM | TGI [10]: > 100 µM | TGI [7]: > 100 µM | TGI [8]: > 100 µM

OCC(O)COCn1nncc1Cn1ncc2c(SCc3ccccc3)ncnc21 (centres undefined)
TGI [2]: > 100 µM | TGI [3]: > 100 µM | TGI [4]: > 100 µM | TGI [5]: > 100 µM | TGI [10]: > 100 µM | TGI [7]: > 100 µM | TGI [8]: > 100 µM
